Source: article PMC6444592, “Citrullination of HP1γ chromodomain affects association with chromatin” (Epigenetics & Chromatin, 2019)

Key:
[1] = tested on: H1.2; conditions: reprogramming and ground state pluripotent stem cells; cited from earlier work
Source text: We previously identified a role for PADI4 during reprogramming and ground state pluripotent stem cells, where the deiminase regulates key pluripotency genes via a mechanism involving citrullination of H1.2. […] Here, we report that the chromodomain of HP1γ is also citrullinated in mESCs, at R38 and R39. […] Furthermore, mutations in HP1γ designed to mimic the loss of charge caused by citrullination inhibit binding ...

[2] = tested on: methylated H3K9; conditions: at gene promoters; cited from earlier work
Source text: It is possible that PADI4 targets both H3R8 and HP1γ bound to the same H3N-terminal tail. The Nanog gene may represent an important example of such a locus, since chromatin immunoprecipitation experiments have shown that both HP1γ and PADI4 bind to its promoter and regulate gene expression in stem cells.

[3] = tested on: histone H3; assay: citrullination of histone H3 by PADI4; type: biochemical; conditions: calcium, anti-H3R2-citrulline and Pan-Cit immunoblot
Experimental: For immunoblotting, cells were lysed in 2 × Laemmli buffer and sonicated in a water bath (Fisherbrand) for 3 min to shear genomic DNA, spun down at full speed in a microfuge for 15 min and incubated for 5 min at 95 °C. Proteins were resolved by SDS-PAGE, transferred to nitrocellulose membrane (Millipore) using wet transfer (transfer buffer: 192 mM glycine, 25 mM Tris.HCl pH8.8) and incubated in blocking solution (5% BSA in TBS containing 0.5% Tween-20 for citrulline sensitive antibodies and 5% non-fat milk powder in TBS containing 0.1% Tween-20 for all other antibodies) for 1 h at room temperature (RT). Membranes were incubated with primary antibody at 4 °C o/n and appropriate HRP-conjugated secondary antibody for 1 h at RT. Membranes were then incubated for enhanced chemiluminescence (ECL, Promega), and proteins were detected by exposure to X-ray film or using the ChemiDoc™ MP imaging system (Bio-Rad). Images were quantified using ImageJ analysis software. Primary antibodies diluted in blocking solution were used to detect citrullinated histone H3R2 (H3R2-Cit, Abcam ab176843 at 1:1000 dilution), HP1γ (Millipore 05-690 MAB clone 42s2 [16] at 1:1000 dilution), β-Tubulin (Abcam ab6046 at 1:1000 dilution) and peptidyl-citrulline (Millipore MABN328, clone F95 [48] at 1:1000 dilution). […]

Peptidylarginine deiminase 4 [PADI4]
effect of H1.2 citrullination [1]: eviction from chromatin and global chromatin decompaction
effect of H3R8 citrullination on HP1 binding to adjacent methylated H3K9 [2]: reduces the binding affinity of HP1 to adjacent methylated H3K9
enzymatic activity of recombinant PADI4 on histone H3 [3]: confirmed by citrullination of histone H3
